Values quoted from earlier work as cited in US10751291B2, “Nanoparticulate compositions comprising interferon gamma and losartan for immunotherapy” (Yale University, priority 2013, dated 2020).

Settings: oral administration

oral absorption: well absorbed
Compound: CCCCc1nc(Cl)c(CO)n1Cc1ccc(-c2ccccc2-c2nn[nH]n2)cc1 [Losartan]
